The record followed here is US8674096B2, “Substituted imidazo[1,5-a]quinoxalin-4-ones as phosphodiesterase 9 inhibitors” (priority 2009, dated 2014).

What is called IC50 is the midpoint of a concentration-inhibition curve. The low end stands for greater potency, the high end for weaker potency. Broadly, the melting point is the temperature of the solid-liquid transition.

One data set addresses T1, PDE9 (Homo sapiens, UniProt O76083).
T1 construct: made in house
The data set can be described thus: PDE9-inhibiting activity (SPA, 3H-cGMP degradation). It is filed as biochemical. On the procedure:
The PDE9 used in the present experiment was expressed/purified by the method as in, for example, Guipponi et al., and Fisher et., al. (Fisher, D. A., et al., J. Biol. Chem., 273: pp. 15559-15564 (1998), Guipponi, M., et al., Hum. Genet., 103: pp. 386-392 (1998)).
The PDE9-inhibiting activity was measured by the following method. That is, to a buffer solution containing tris(hydroxymethyl)aminomethane-hydrochloric acid (40 mM, pH 8.0), magnesium chloride (5 mM), and 2-mercaptoethanol (4 mM) were added cGMP (1 μM) and ^3H-cGMP (0.33 μCi/ml) to give a substrate buffer solution. A test substance solution and an enzyme solution which had been adjusted to an optimal concentration were added thereto to perform a reaction at 30° C. The enzyme reaction was stopped by the addition of Scintillation Proximity Assay (SPA) Beads (GE Healthcare, UK) containing 5 mM 3-isobutyl-1-methylxanthine (IBMX). For the enzyme activity, the amount of 5′-GMP, which is a reaction degradation product bound to SPA beads, was measured with a TopCount microplate reader (Hewlett Packard, USA).
The inhibitory rate was calculated by taking the radioactivity of the control containing no test substance as (A), taking the radioactivity of the blank containing no enzyme as (B), and taking the radioactivity of the test substance as (C), and using the following equation. Inhibitory rate=100−{(C)−(B)/(A)−(B)}×100(%)

T1 sequence (O76083 whole entry): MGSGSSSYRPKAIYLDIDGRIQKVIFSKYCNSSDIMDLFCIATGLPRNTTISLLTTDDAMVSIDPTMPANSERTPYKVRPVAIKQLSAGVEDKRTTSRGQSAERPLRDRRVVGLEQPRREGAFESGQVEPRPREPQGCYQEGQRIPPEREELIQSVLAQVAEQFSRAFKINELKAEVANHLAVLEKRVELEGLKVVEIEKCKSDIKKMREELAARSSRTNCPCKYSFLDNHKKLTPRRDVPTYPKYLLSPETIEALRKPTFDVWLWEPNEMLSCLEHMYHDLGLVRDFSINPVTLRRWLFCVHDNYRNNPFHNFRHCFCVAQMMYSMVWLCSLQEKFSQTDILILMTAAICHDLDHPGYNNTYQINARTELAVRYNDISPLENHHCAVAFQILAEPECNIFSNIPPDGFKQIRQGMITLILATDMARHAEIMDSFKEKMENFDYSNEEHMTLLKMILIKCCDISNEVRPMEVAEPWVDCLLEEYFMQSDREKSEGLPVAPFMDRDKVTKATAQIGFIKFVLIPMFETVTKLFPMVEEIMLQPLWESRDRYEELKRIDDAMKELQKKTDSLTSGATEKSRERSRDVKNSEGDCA

Turning to `Cc1cc2c(cc1C(=O)N1CCc3cc(F)ccc31)[nH]c(=O)c1nnc(C3CCC(F)(F)CC3)n12.Cl` [Example 13, 1-(4,4-difluorocyclohexyl)-7-[(5-fluoro-2,3-dihydro-1H-indol-1-yl)carbonyl]-8-methyl[1,2,4]triazolo[4,3-a]quinoxalin-4(5H)-one hydrochloride], the melting point was 220 °C (dec.). The half-maximal inhibitory concentration (IC50) against PDE9 is 22 nM.

Consider `Cc1cc2c(cc1C(=O)N1Cc3ccccc3C1)[nH]c(=O)c1cnc(C3CCOCC3)n12` [Example 27], for which the melting point is 312 °C (dec.). Also, 18 nM corresponded to half-maximal inhibition at PDE9 (IC50).

For `Cc1cc2c(cc1C(=O)N1CCc3sccc3C1)[nH]c(=O)c1cnc(C3CCOCC3)n12.Cl` [Example 35], the melting point is 283 to 285 °C. In addition, on PDE9, inhibition was half-maximal at 12 nM (IC50).

For `COC(=O)c1cccc2c1CN(C(=O)c1cc3[nH]c(=O)c4cnc(C5CCOCC5)n4c3cc1C)CC2.Cl` [Example 68], the melting point was in the range of 192 to 194 °C. This molecule also gave an IC50 on PDE9 of 3.5 nM.

In turn, `Cc1cc2c(cc1C(=O)N1CCc3cc(F)ccc31)[nH]c(=O)c1cnc(C3CCOCC3)n12.Cl` [Example 76] gave a melting point of 297 to 298 °C. The molecule also showed an IC50 at PDE9 of 2.5 nM.

`Cc1cc2c(cc1C(=O)N1CCc3cc(Cl)ccc31)[nH]c(=O)c1cnc(C3CCOCC3)n12.Cl` [Example 77] registered a melting point of 265 to 266 °C. The molecule further gave an IC50 on PDE9 of 1 nM.

With `Cc1cc2c(cc1C(=O)N1CCc3cc(S(=O)(=O)N(C)C)ccc31)[nH]c(=O)c1cnc(C3CCOCC3)n12.Cl` [Example 80], the melting point lay in the range of 209 to 212 °C. Moreover, on PDE9, half-maximal inhibition (IC50) required 2.6 nM.

Take `Cc1cc2c(cc1C(=O)N1CCc3c(Cl)cccc3C1)[nH]c(=O)c1nnc(C3CCCC3)n12` [Example 91]: the melting point fell in the range of 236 to 237 °C. Moreover, inhibition against PDE9 was half-maximal at 20 nM (IC50).

In the case of `Cc1cc2c(cc1C(=O)N1Cc3ccccc3C1)[nH]c(=O)c1nnc(C3CCOCC3)n12` [Example 93], the melting point is 305 °C (dec.). For the same molecule, half-maximal inhibition on PDE9 (IC50) required 15 nM.

Molecule `Cc1cc2c(cc1C(=O)N1Cc3ccc(Cl)cc3C1)[nH]c(=O)c1cnc(C3CCOCC3)n12.Cl` [Example 103] displayed a melting point of 210 to 214 °C. This molecule also displayed an IC50 on PDE9 of 11 nM.

As for `COc1cc2c(cc1C(=O)N1Cc3ccccc3C[C@@H]1CO)[nH]c(=O)c1cnc(C3CCCCC3)n12` [Example 220], the melting point is 215 °C (dec.). The same molecule yielded a half-inhibitory concentration (IC50) against PDE9 of 18 nM.

Take `Cc1cc2c(cc1C(=O)N1CCc3cc(F)c(Cl)cc31)[nH]c(=O)c1nnc(C3CCCC3)n12.Cl` [Example 248]: the melting point fell in the range of 276 to 278 °C. The same molecule had an IC50 against PDE9 of 5.8 nM.

Turning to `Cl.O=C(c1cc2[nH]c(=O)c3cnc(C4CCOCC4)n3c2cc1C1CC1)N1CCc2cc(Cl)ccc21` [Example 263], the melting point is 339 to 342 °C (dec.). In addition, on PDE9, inhibition was half-maximal at 0.9 nM (IC50).

Regarding `COc1cc2c(cn1)N(C(=O)c1cc3[nH]c(=O)c4cnc(C5CCOCC5)n4c3cc1OC)CC2` [Example 277], the melting point is 237 °C (dec.). This molecule also returned a 50% inhibitory concentration (IC50) against PDE9 of 16 nM.

With `O=C(c1cc2[nH]c(=O)c3cnc(C4CCOCC4)n3c2cc1Cl)N1CCc2cccnc21` [Example 279], the melting point was 275 °C (dec.). At PDE9, this molecule showed a half-maximal inhibitory concentration (IC50) of 10 nM.

Molecule `Cc1cc2c(cc1C(=O)N1CCc3cc(Cl)ccc31)[nH]c(=O)c1nnc(C3CCCOC3)n12.Cl` (stereo not shown) [Example 281] showed a melting point of 298 to 301 °C. Moreover, half-maximal inhibition at PDE9 (IC50) required 1.6 nM.

On to `Cc1cc2c(cc1C(=O)N1CCc3cc(F)c(F)cc31)[nH]c(=O)c1nnc(C3CCCC3)n12.Cl` [Example 289], for which the melting point is 210 to 212 °C (dec.). Moreover, the half-inhibitory concentration (IC50) against PDE9 worked out at 3.9 nM.

`Cc1cc2c(cc1C(=O)N1CCc3cc(Cl)c(F)cc31)[nH]c(=O)c1cnc(C3CCOCC3)n12.Cl` [Example 290] came in with a melting point of 292 to 294 °C. The molecule also yielded an IC50 against PDE9 of 1 nM.

For `Cc1cc2c(cc1C(=O)N1CCc3cc(Cl)c(F)cc31)[nH]c(=O)c1nnc(C3CCOCC3)n12` [Example 291], the melting point was in the range of 309 to 311 °C. The same molecule yielded a half-maximal inhibitory concentration (IC50) at PDE9 of 2.8 nM.

As for `COCc1cc2c(cc1C(=O)N1CCc3cc(Cl)ccc31)[nH]c(=O)c1cnc(C3CCOCC3)n12.Cl` [Example 300], the melting point was 298 to 301 °C (dec.). Also, the half-maximal inhibitory concentration (IC50) against PDE9 amounted to 0.8 nM.

Molecule `Cc1cc2c(cc1C(=O)N1CCc3cc(Br)cnc31)[nH]c(=O)c1nnc(C3CCOCC3)n12` [Example 306] returned a melting point of 222 to 223 °C. The same molecule showed a half-inhibitory concentration (IC50) against PDE9 of 4.2 nM.

Consider `CN(C)CCOc1cc2c(cc1C(=O)N1CCc3cc(F)ccc31)[nH]c(=O)c1cnc(C3CCOCC3)n12` [Example 309], for which the melting point was 216 to 219 °C (dec.). This molecule gave a half-inhibitory concentration (IC50) against PDE9 of 4.1 nM.

In the case of `Cc1cc2c(cc1C(=O)N1CCc3cc(Br)cnc31)[nH]c(=O)c1nnc(C3CCOC3)n12.Cl` (stereo not shown) [Example 312], the melting point lay in the range of 242 to 243 °C. In addition, 20 nM corresponded to half-maximal inhibition on PDE9 (IC50).

Regarding `COCc1cc2c(cc1C(=O)N1CCc3cc(Br)cnc31)[nH]c(=O)c1cnc(C3CCOCC3)n12.Cl` [Example 320], the melting point was 310 °C (dec.). In addition, half-maximal inhibition against PDE9 (IC50) required 1 nM.

Consider `Cc1cc2c(cc1C(=O)N1CCc3cc(F)ccc31)[nH]c(=O)c1nnc(C3(C)CCOCC3)n12.Cl` [Example 322], for which the melting point was in the range of 243 to 245 °C. At PDE9, this molecule showed an IC50 of 29 nM.

In the case of `Cl.O=C(c1cc2[nH]c(=O)c3cnc(C4CCOCC4)n3c2cc1OCCO)N1CCc2cc(Cl)ccc21` [Example 326], the melting point was 303 to 306 °C (dec.). Half-maximal inhibition against PDE9 (IC50) was put at 1.2 nM.

With `Cc1cc2c(cc1C(=O)N1CCc3cc(Cl)ccc31)[nH]c(=O)c1cnc([C@H]3CC[C@@H](O)CC3)n12.Cl` [Example 330], the melting point was 204 to 206 °C. Half-maximal inhibition against PDE9 (IC50) was put at 1.2 nM.

On to `COCc1cc2c(cc1C(=O)N1CCc3cc(OC)ncc31)[nH]c(=O)c1cnc(C3CCOCC3)n12` [Example 333], for which the melting point is 208 °C (dec.). Besides, at PDE9, the IC50 is 2.9 nM.

Take `COc1cc2c(cc1C(=O)N1Cc3ccccc3C1)[nH]c(=O)c1nnc(C3CCOCC3)n12.Cl` [Example 338]: the melting point was 228 °C (dec.). For the same molecule, the concentration for half-maximal inhibition (IC50) against PDE9 worked out at 28 nM.

Regarding `Cc1cc2c(cc1C(=O)N1CCc3cc(F)cnc31)[nH]c(=O)c1cnc(C3CCOCC3)n12.Cl` [Example 344], the melting point is 340 °C (dec.). Also, the concentration for half-maximal inhibition (IC50) at PDE9 stood at 7.7 nM.

Take `COCc1cc2c(cc1C(=O)N1CCc3cc(Cl)ccc31)[nH]c(=O)c1nnc(C3CCOCC3)n12` [Example 347]: the melting point lay within 198 to 201 °C. Further, at PDE9, half-maximal inhibition (IC50) required 3.3 nM.

The molecule `COCc1cc2c(cc1C(=O)N1CCc3ncccc3C1)[nH]c(=O)c1cnc(C3CCOCC3)n12` [Example 350] registered a melting point of 172 to 175 °C. This molecule displayed a 50% inhibitory concentration (IC50) against PDE9 of 9.2 nM.

In turn, `Cc1cc2c(cc1C(=O)N1CCc3cc(Cl)ccc31)[nH]c(=O)c1nnc([C@H]3CC[C@@H](O)CC3)n12` [Example 356] came in with a melting point of 277 to 279 °C. The molecule also had an IC50 against PDE9 of 1.5 nM.

As to `Cc1cc2c(cc1C(=O)N1CCc3cc(Cl)ccc31)[nH]c(=O)c1nnc(C(O)C3CC3)n12` (stereo not shown) [Example 359], the melting point was 260 to 262 °C (dec.). On PDE9, the 50% inhibitory concentration (IC50) is 5.4 nM.

As to `Cc1cc2c(cc1C(=O)N1CC(C)(C)c3cc(Cl)ccc31)[nH]c(=O)c1nnc(C3CCOCC3)n12.Cl` [Example 517], the melting point is 227 to 230 °C. This molecule also displayed an IC50 against PDE9 of 0.9 nM.

In turn, `COCc1cc2c(cc1C(=O)N1CCc3cc(F)c(F)cc31)[nH]c(=O)c1nnc(C3CCOCC3)n12.Cl` [Example 519] returned a melting point of 266 to 269 °C. The molecule also yielded an IC50 against PDE9 of 6.8 nM.

In the case of `COCc1cc2c(cc1C(=O)N1CCc3cc(Cl)ccc31)[nH]c(=O)c1nnc(CC3CC3)n12.Cl` [Example 522], the melting point was 257 °C (dec.). On PDE9, this molecule registered a half-maximal inhibitory concentration (IC50) of 3.6 nM.

In the case of `Cc1cc2c(cc1C(=O)N1CCc3cc(Cl)ccc31)[nH]c(=O)c1cnc([C@H]3CC[C@H](C(N)=O)CC3)n12` [Example 528], the melting point fell in the range of 234 to 237 °C. On PDE9, the IC50 is 0.9 nM.
